Reference: patent publication US9650405B2, “Modified sophorolipids as oil solubilizing agents” (Polytechnic Institute of New York University, priority 2010, dated 2017)
Where “and” joins values, the source holds several entries; their conditions need not be identical. Identical values can stand only once.

Tests used:
[1] = Emulsion viscosity measurement; assay type: physicochemical
Protocol: Viscosity was measured at 25° C. with increasing shear rate from 1 S^−1 to 750 S^−1. The viscosity change was monitored for aging times up to 3 months. For all samples, the paraffin oil/water ratio is 7/3 and the surfactant concentrations studied were 0.5%, 1% to 2%-by-weight relative to the oil phase. FIG. 19 presents the viscosity change with shear rate for different aging times. […] The emulsion tested was prepared using 2%-by-weight SL-butyl ester relative to paraffin oil. Viscosity decreases with increased shear rate implying the emulsion follows shear shinning. Furthermore, viscosity decreased with increased storage time. […] This change is consistent with the small increase in oil phase particle size (1.7 to 2.1 μm) with aging from 1 day to 3-months (Tables 4 and 5).
Values of ηlow decreased with storage time to various extents that are dependent on the MSL compound used to stabilize the emulsion. […] The relative ability of different MSL structures to stabilize emulsions and thereby decrease the extent of decrease in viscosity as a function of aging time would not be predictable by one skilled in the art. The behavior as a function of MSL structure is related to emulsion dispersed phase droplet size. That is, the smaller the change in droplet size, the less decrease in emulsion viscosity occurs with increased aging time. Smaller changes in droplet size reflects the ability of the emulsifier to better stabilize particles. For example, the viscosity of the emulsion stabilized by SL-butyl amide decreased by 65% (from 344 Pas to 120 Pas) whereas the viscosity of the emulsion stabilized by SL-hexyl ester decreased by 20% (from 457 Pas to […]).
The viscosity was measured 24 hours after emulsion preparation. The viscosity increased with increasing surfactant concentration. Such behavior could not have been predicted by one skilled in the art without the teaching provided in this disclosure. The extent of viscosity change with surfactant concentration is related to the interfacial free energy at the droplet surface that reduces with the increase of surfactant concentration.

[2] = Emulsion droplet size distribution, Coulter LS 230 analyzer; assay type: physicochemical; settings: paraffin oil-to-water 7:3 v/v, 25° C.
Protocol: Emulsified oil droplet size (average and standard deviation) was measured after suitable dilution of the emulsion phase using a Coulter LS 230 analyzer. […] Relative to natural and lactonic SL, selected MSLs show improved properties as emulsifiers on paraffin oil.
After being aged for 3-months, emulsified oil droplet size (average and standard deviation) was measured after suitable dilution of the emulsion phase using a Coulter LS 230 analyzer and the results are listed in Table 5. […] However, increasing the surfactant concentration from 1 to 2% did result in substantially smaller emulsion-phase droplet sizes. […] This is evidence that MSL's can stabilize oil phases greatly decreasing their tendency to undergo coalescence. […] It follows that the results of 3-month aging studies support the utility of selected MSLs for formation and stabilization of oil-in-water emulsions of paraffin oil phases. One skilled in the art would expect that the ability of these MSLs to stabilize paraffin oil phases teaches that they would also stabilize oil phases of similar structure.

[3] = Solubility of MSLs in water
Excerpt: If the material precipitates upon cooling or was to some extent insoluble, the insoluble material was separated by filtration, dried and weighed.

[4] = MSL combination lemon oil emulsions, high shear homogenizer; assay type: physicochemical; settings: 5 weight % surfactant, 1 weight % lemon oil, one week at 25° C.
Protocol: In addition to testing single MSL emulsification through tracking nanoemulsion stability, MSL combinations were investigated. These emulsions were processed with a high shear homogenizer at 13,500 rpm. One example of this MSL combination formulation included 5 weight % surfactant, 1 weight % lemon oil, and 94% deionized water. The pure form of this formulation included 5 weight % SL-hexyl ester. The combination form of this formulation included 2.5 weight % SL-hexyl ester and 2.5 weight % SL-ethyl ester. […] The size of droplets within this emulsion was 2.5 μm. […] The size of droplets within the combination emulsion was 8.4 nm.

[5] = SL-esters; from earlier publication in Colloids and surfaces, 2004, 240, 75; cited from earlier work
[6] = Emulsion type: dilution test and oil soluble dye staining; assay type: physicochemical; settings: 2%-by-weight relative to water phase, oil/water 5/5 and 7/3
Protocol: In this test the emulsion is diluted either with oil (O) or water (W). If the emulsion is O/W type and it is diluted with water, it will remain stable as water is the dispersion medium. However, if the emulsion is O/W type and it is diluted with oil, the emulsion will break as oil and water are not miscible with each other. […] Emulsions of the O/W type have separated layers after dilution with pure oil but form a homogenous phase when diluted by water. Unless otherwise specified, the emulsion type formed by MSLs were oil in water.
In FIG. 13B, the tube on the left was diluted with 1 mL of oil whereas the tube on right was diluted with water. Visual observation of the tubes in FIG. 13B supports that the emulsions formed are indeed O/W emulsions.
Oil Red O was applied as an oil soluble dye and emerald green as water soluble dye in the process of emulsion preparation. Observations of emulsions were made before and after staining under optical microscope at 400× magnification (FIG. 14). […] The formation of O/W emulsions and not W/O emulsions with this set of MSL compounds would not be obvious to one skilled in the art. We believe that O/W emulsions are formed by this set of MSLs due to that large sophorose polar head groups requires relatively more space than the lipid tails and, therefore self-assemble into spherical type structures where disaccharide groups are locating outside the droplets.

[7] = Emulsion stability based on phase separation; assay type: physicochemical; settings: for emulsion layer volume-%, one month / emulsion layer volume-%, start: oil/water 5/5, 2%-by-weight; for emulsion layer volume-%, one month: one month at room temperature; for emulsion layer volume-%, start / emulsion layer, start: start of aging; for emulsion phase, one month / emulsion layer, start: oil/water 7/3, 2%-by-weight; for emulsion phase, one month: one month aging; for emulsion layer percentage: paraffin oil/water 5/5, 2%-by-weight emulsifier, after 24 hours at 25° C.
Protocol: The emulsion was obtained by homogenizing the oil and water mixture and was allowed to settle at room temperature for 24 hours. […] Then, this mixture was homogenized at 13,000 rpm for 2 minutes. Thereafter, the resulting emulsion was left unagitated at 25° C. for 24 hours. Surfactants which give a larger emulsion phase are denoted as having higher emulsion effectiveness (Process Safety and Environment protection, 2005, 83, 38-46). […] Thus, unexpectedly, that longer alkyl chains, at least up to butyl and hexyl, provided improved interfacial stability at the paraffin oil/water interface. […] Apparently, ester bonds of SL-esters are less disruptive to organization at the oil water interface than amide bonds of SL-amides. […] The acidic SL (3) gave an 8% emulsion layer, much lower than the MSL examples given herein. Similarly, the natural SL (1) mixture gave a 10% emulsion layer. This performance is also far below that of SL-butyl amide (24), hexyl amide (25), butyl ester (8) and hexyl ester (16).
After homogenized at 13,000 rpm for 2 minutes, the emulsions were kept at room temperature and separation of the respective oil, emulsion and water layers was recorded for up to 1 month.

[8] = oil/water 7/3, 1% MSL, shear rate 1 S^−1
[9] = oil/water 7/3, 2%-by-weight relative to paraffin oil, 25° C.

CCCCCCOC(=O)CCCCCCCC=CCCCCCCC(C)OC1OC(CO)C(O)C(O)C1OC1OC(CO)C(O)C(O)C1O (centres unmarked) [Compound 16, SL-Hexyl Ester]
low shear emulsion viscosity, after aging period [1, 8]: 459 Pas | low shear emulsion viscosity, before aging [1, 8]: 457 Pas | viscosity decrease over the aging period [1, 8]: 20% | Average droplet size ([2]; 0.5 weight %, 24 hours): 2.3 ± 0.4 μm | Average droplet size ([2]; 0.5 weight %, aged 3-months): 2.9 ± 0.2 μm | Average droplet size ([2]; 1 weight %, 24 hours): 2.1 ± 0.3 μm | Average droplet size ([2]; 1 weight %, aged 3-months): 2.5 ± 0.1 μm | Average droplet size ([2]; 2 weight %, 24 hours): 1.7 ± 0.2 μm | Average droplet size ([2]; 2 weight %, aged 3-months): 1.9 ± 0.1 μm | Solubility [3]: <5000 µg/mL | size of droplets within the emulsion ([4]; 94% deionized water): 2.5 μm | appearance of the emulsion [4]: completely opaque | CMC Range [5]: 3-4 10^−6M | MST (minimum surface tension) [5]: 34.0 mN/m | emulsion type by Oil Red O staining [6]: O/W | emulsion layer volume-%, one month [7]: 65% | emulsion layer volume-%, start [7]: 70% | emulsion phase, one month [7]: 85% | emulsion layer, start [7]: 95% | emulsion layer percentage [7]: 65%

CCCCOC(=O)CCCCCCCC=CCCCCCCC(C)OC1OC(CO)C(O)C(O)C1OC1OC(CO)C(O)C(O)C1O (centres unmarked) [Compound 8, SL-Butyl Ester]
emulsion viscosity at shear rate 1S^−1, after 3 months [1, 9]: 376 Pas | emulsion viscosity at shear rate 1S^−1, before aging [1, 9]: 465 Pas | viscosity decrease after 3 months ([1]; oil/water 7/3, 2%-by-weight, shear rate 1S^−1): 19.1% | Average droplet size ([2]; 0.5 weight %, 24 hours): 2.5 ± 0.3 μm | Average droplet size ([2]; 0.5 weight %, aged 3-months): 3.5 ± 0.4 μm | Average droplet size ([2]; 1 weight %, 24 hours): 2.4 ± 0.3 μm | Average droplet size ([2]; 1 weight %, aged 3-months): 3.1 ± 0.5 μm | Average droplet size ([2]; 2 weight %, 24 hours): 1.7 μm and 1.7 ± 0.1 μm | Average droplet size ([2]; 2 weight %, aged 3-months): 2.1 μm and 2.1 ± 0.4 μm | Solubility [3]: <3000 µg/mL | CMC Range [5]: 7-9 10^−6M | MST (minimum surface tension) [5]: 34.5 mN/m | emulsion type by Oil Red O staining [6]: O/W | emulsion layer volume-%, one month [7]: 50% | emulsion layer volume-%, start [7]: 65% | emulsion phase, one month [7]: 90% | emulsion layer, start [7]: 95% | emulsion layer percentage [7]: 55%
